In patent US20260115185A1, “QUINOLINE DERIVATIVES WHICH ACT AS KAPPA-OPIOID RECEPTOR ANTAGONISTS” (The Scripps Research Institute, priority 2023, published 2026):

Assays:
[1] = target: T1, kappa opioid receptor (KOR) (Homo sapiens, UniProt P41145); experiment: OPRKappa 1 Tango B-Arrestin Assay, antagonist mode (Tango OPRK1-bla U2OS cells, U50488 EC80 challenge); format: cell-based; conditions: for Selectivity (MOR/KOR): Kappa selectivity, MOR IC50 / KOR IC50; for IC50: antagonist mode, Tango OPRK1-bla U2OS cells, 6 nM U50488 challenge
T1 construct: host or cells: U2OS (Tango OPRK1-bla U2OS)
Excerpt: OPRKappa 1 Tango B-Arrestin Assay Protocol-Antagonist Mode. […] The assay uses Tango OPRK1-bla U2OS cells which express OPRK1 linked to a GAL4-VP16 transcription factor via a TEV protease site. The cells also express a β-arrestin/TEV protease fusion protein and a β-lactamase (BLA) reporter gene under the control of a UAS response element. Stimulation of the OPRK1 receptor by agonist causes migration of the β-arrestin fusion protein to the GPCR, and through proteolysis liberates GAL4-VP16 from the receptor. The liberated VP16-GAL4 migrates to the nucleus, where it induces transcription of the BLA gene. BLA expression is monitored by measuring fluorescence resonance energy transfer (FRET) of a cleavable, fluorogenic, cell-permeable BLA substrate. As designed, test compounds that are OPRK1 antagonists inhibit agonist activation and migration of the fusion protein, thus preventing proteolysis of GAL4-VP16 and BLA transcription, leading to no increase in well FRET. Compounds were tested in quadruplicate using a 10-point, 1:3 dilution series starting at a nominal concentration of 10 micromolar.
The Tango OPRK1-U20S Dividing cell line was routinely cultured in 150 mm dishes at 37C, 5% CO2 and 95% relative humidity (RH).
On Day 1 of the assay, 16,000 cells in 10 μL of assay media (DMEM-Glutamax—with Sodium Pyruvate, 10% fetal bovine serum stripped with charcoal-dextran (CDS), 25 mM HEPES, 0.1 mM non-essential amino acids, antibiotic mix (penicillin streptomycin)) were seeded into each well of a 384 Greiner 788092 black low profile, clear bottom, low volume plate, and incubated 16-24 hours at 37° C., 5% CO2 and 95% (RH).
On Day 2, 50 nL of test compound in DMSO was added to the appropriate wells and plates were incubated for 30 min at 37° C. 5% CO2 and 95% (RH). Next was added 0.65 μL of commercially available U50488 OPRK1 agonist or DMSO in assay media: this EC80 Challenge consists of 0.6 μL of 111 nM U50488 to yield a final assay concentration of 6 nM). After incubation for 4 hours at 37° C., 5% CO2 and 95% (RH), 2.5 μL of LiveBLazer™FRET B/G (CCF4-AM) Mix (Soln.'s A,B,C,&D) was added to each well and incubated at room temperature in the dark for 2 hours. Well fluorescence was measured on Perkin Elmer's Envision using an Excitation filter 409 nm, Emission filters at 460 nm and […], bottom read.
(§1) The Percent Inhibition was calculated from the median ratio as follows:
• Tango™OPRK1-bla U20S Cells (Invitrogen K1576) • McCoy's 5A Medium, (Invitrogen 16600-082) • Dialyzed Fetal Bovine Serum, (Invitrogen 26400-036) • Non Essential Amino Acids 100× (Invitrogen part 11140-050) • HEPES (pH 7.3) 1M, (Invitrogen 15630-080) • Sodium Pyruvate 100× (Invitrogen 11360-070) • Penicillin Streptomycin, (Invitrogen 15640) • Trypsin 0.25% EDTA (Invitrogen 25200056) • DPBS without Calcium/Magnesium (Invitrogen 14190-136) • DMEM, High Glucose, GlutaMAX (Invitrogen 10569-010) • Fetal Bovine Serum, Charcoal Stripped (Invitrogen 12676-011) • DMSO Dry (Sigma D2650) • U50488 OPRK1 Agonist MW410.29 (Tocris 67198-19-0) • GNTI dihydrochloride OPRK1 Antagonist MW571.5 (Tocris 1282) • Nor-Binaltorphimine dihydrochloridc MW770.75 (Tocris 0347)
LiveBLAzere™-FRET/BG Loading Mix: (Invitrogen K1030 (5 mg)), composed of Solutions A, B, C, and D: • Solution A (6 μL): LiveBLAzer™-FRET/BG Substrate (CCF4-AM) • Solution B (60 μL) • Solution C (904 μL) • Solution C (must add 250 μl of 1N NaOH to 45 mL of Solution C prior to use) • Solution D (30 μL) [Probinicid] (Sigma P8161) make 200 mM stock in NaOH—H2O.

mu opioid receptor (MOR) = target: T2, mu opioid receptor (MOR) (Homo sapiens, UniProt P35372); experiment: OPRMu1 Discover X β-arrestin Assay, antagonist mode (U2OS cells, DAMGO EC80 challenge); format: cell-based
T2 construct: host or cells: U2OS (Discover X OPRMu1-U2OS, PathHunter)
Excerpt: OPRMu1 Discover X—β-arrestin Assay—Antagonist Mode. […] This assay evaluates the OPRMu1 activation in membrane recruitment of β-arrestin. In addition, the assay evaluates GPCR-β-arrestin proximity using low affinity fragment complementation of beta-galactosidase (beta-gal). The assay employs U20S cells, which express OPRMu1 fused to the complementary beta-gal fragment (enzyme acceptor). As designed, compounds that act as antagonists will prevent receptor activation resulting in reduced well luminescence. Compounds were tested in quadruplicate using a 10-point, 1:3 dilution series starting at a nominal concentration of 10 micromolar.
The Discover X OPRMu1-U20S cell line was cultured in 150 mm dishes at 37° C., 5% CO2 and 95% relative humidity (RH).
On Day 1 of the assay, 5000 cells in 20 μL of assay buffer (Discover X's Cell Plating Reagent 5) were seeded into each well of a 384 Corning 3570 standard white plate, and incubated 16-24 hours at 37° C., 5% CO2 and 95% RH.
On Day 2, 100 nL of test compound in DMSO were added to the appropriate wells and the plates were then incubated for 30 min at 37° C. 5% CO2 and 95% RH. Next, 2.2 μL of DAMGO OPRMu1 agonist (commercially available) or DMSO in assay media. (The EC80 Challenge consists of 1.8 μL of 3.7 μM DAMGO, 0.4 μL of Assay Buffer, with a final assay concentration of 303 nM). After incubation for 3 hours at 37° C. 5% CO2, and 95% RH, 10 μL of Path Hunter Detection Mix was added to each well, and the plate was then incubated at room temperature in the dark for 1 hour. Well luminescence was measured on Perkin Elmer's Envision.
as §1
• DMEM Medium, (Invitrogen 11965) • F12 Medium, (Invitrogen 11765) • Heat Inactivated Fetal Bovine Serum, (Invitrogen 10082147) • Non Essential Amino Acids 100× (Invitrogen 11140-050) • HEPES (pH 7.3) 1M, (Invitrogen 15630-080) • Sodium Pyruvate 100× (Invitrogen 11360-070) • Penicillin Streptomycin, (Invitrogen 15640) • Trypsin 0.25% EDTA (Invitrogen 25200056) • DPBS without Calcium/Magnesium (Invitrogen 14190-136) • DMSO Dry (Sigma D2650) • DAMGO OPRMu1 Agonist MW513.19 (Sigma E7384-5MG) • B-Funaltrexamine Hydrochloride OPRM1 Antagonist MW (SIGMA 0003-2MG) • PathHunter Cell Plating 5 Reagent (Discover X 93-0563R5A) • Corning 3750 Standard 384 well white plate with lid.
PathHunter Detection Mix (DiscoverX 93-0001): 1 part Galacton Star/5 parts Emerald II/19 parts PH Cell Assay Buffer.

T1 sequence (P41145 whole entry): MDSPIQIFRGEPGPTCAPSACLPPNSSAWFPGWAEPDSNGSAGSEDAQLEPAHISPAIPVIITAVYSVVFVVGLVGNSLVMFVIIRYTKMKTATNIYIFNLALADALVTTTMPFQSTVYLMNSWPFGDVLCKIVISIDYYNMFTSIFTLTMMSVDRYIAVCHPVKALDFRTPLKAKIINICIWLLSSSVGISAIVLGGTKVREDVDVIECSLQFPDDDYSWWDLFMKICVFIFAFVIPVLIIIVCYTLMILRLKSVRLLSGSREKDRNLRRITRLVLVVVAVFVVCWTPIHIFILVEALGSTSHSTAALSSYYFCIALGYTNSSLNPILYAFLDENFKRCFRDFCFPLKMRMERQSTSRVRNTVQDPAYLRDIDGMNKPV
T2 sequence (P35372 whole entry): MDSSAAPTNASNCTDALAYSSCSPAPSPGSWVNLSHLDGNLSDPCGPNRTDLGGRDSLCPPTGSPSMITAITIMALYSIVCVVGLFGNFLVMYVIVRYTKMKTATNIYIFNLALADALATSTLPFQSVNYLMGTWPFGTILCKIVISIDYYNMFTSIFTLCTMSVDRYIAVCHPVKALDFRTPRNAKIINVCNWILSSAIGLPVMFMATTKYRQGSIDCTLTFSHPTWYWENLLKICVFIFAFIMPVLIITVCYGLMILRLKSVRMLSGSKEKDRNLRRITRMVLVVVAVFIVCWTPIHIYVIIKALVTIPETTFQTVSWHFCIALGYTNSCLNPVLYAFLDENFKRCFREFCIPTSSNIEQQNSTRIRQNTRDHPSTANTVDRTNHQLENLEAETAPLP

SMILES	IC50 [1]	IC50 (mu opioid receptor (MOR))	Selectivity (MOR/KOR) [1]
CCc1cc(F)c2nc(N3CCC(N[C@H]4CCOC[C@@H]4O)CC3)c(-c3cc(C)n(C)n3)c(C)c2c1 [Compound 16, (3R,4S)-4-((1-(3-(1,5-dimethyl-1H-pyrazol-3-yl)-6-ethyl-8-fluoro-4-methylquinolin-2-yl)piperidin-4-yl)amino)tetrahydro-2H-pyran-3-ol]	1 to 10 nM	100 to 1000 nM	++ (between 10- and 100-fold selectivity)
CCc1cc(F)c2nc(N3CC[C@H](NC4CCOCC4)[C@H](F)C3)c(-c3nn(C)cc3F)c(C)c2c1F [Compound 70]	1 to 10 nM	> 1000 nM	+++ (between 100- to 1000-fold selective)
CCc1cc(F)c2nc(N3CCN(C(=O)CN(C)C)C[C@H]3C)c(-c3nc(C)no3)c(C)c2c1 [Compound 44]	10 to 100 nM	> 1000 nM	+++ (between 100- to 1000-fold selective)
CCc1cc(F)c2nc(N3CCC(N[C@H]4CCCC(F)(F)C4)CC3)c(-c3cc(C)n(C)n3)c(C)c2c1 [Compound 67]	1 to 10 nM	10 to 100 nM	++ (between 10- and 100-fold selectivity)
CCc1cc(F)c2nc(N3CCN(C(=O)[C@@H](C)N4CC[C@@H](O)C4)C[C@H]3C)c(-c3nc(C)no3)c(C)c2c1 [Compound 146]	10 to 100 nM	> 1000 nM	+++ (between 100- to 1000-fold selective)
CCc1cc(-c2ccnn2C)c2nc(N3CCC(N[C@H]4COC[C@H]4F)CC3)c(-c3ccn(C)n3)c(C)c2c1 [Compound 89]	1 to 10 nM	> 1000 nM	++ (between 10- and 100-fold selectivity)
CCc1cc(F)c2nc(N3CCN(C(=O)[C@@H](C)N(CC)CC)C[C@H]3C)c(-c3nc(C)no3)c(C)c2c1 [Compound 155]	1 to 10 nM	> 1000 nM	+++ (between 100- to 1000-fold selective)
CCc1cc(F)c2nc(N3CC[C@@H](N[C@@H]4CCCOC4)C[C@@H]3C)c(-c3cc(C)no3)c(C)c2c1 [Compound 143]	10 to 100 nM	> 1000 nM	++++ (more than 1000-fold selectivity over MOR)
CCc1cc(F)c2nc(N3CCC(OCCN4CCCC4)CC3)c(-c3nc(C)no3)c(C)c2c1 [Compound 187]	10 to 100 nM	> 1000 nM	+++ (between 100- to 1000-fold selective)
CCc1cc(F)c2nc(N3CCN(CC4CCOCC4)C[C@H]3C)c(-c3nc(C)no3)c(C)c2c1 [Compound 49, (R)-5-(6-ethyl-8-fluoro-4-methyl-2-(2-methyl-4-((tetrahydro-2H-pyran-4-yl)methyl)piperazin-1-yl)quinolin-3-yl)-3-methyl-1,2,4-oxadiazole]	10 to 100 nM	> 1000 nM	+++ (between 100- to 1000-fold selective)
CCc1cc(F)c2nc(N3CCN(C(=O)C(C)(C)N4CCCC4)C[C@H]3C)c(-c3cc(C)no3)c(C)c2c1 [Compound 179]	10 to 100 nM	> 1000 nM	++ (between 10- and 100-fold selectivity)
CCc1cc(F)c2nc(N3CC[C@H](N[C@@H]4CCOC4)C[C@H]3C)c(-c3cc(C)no3)c(C)c2c1 [Compound 140]	< 1 nM	100 to 1000 nM	+++ (between 100- to 1000-fold selective)

Second part, led by results:

IC50 [1]	IC50 (mu opioid receptor (MOR))	SMILES	Selectivity (MOR/KOR) [1]
1 to 10 nM	100 to 1000 nM	CCc1cc(-c2ccnn2C)c2nc(N3CCC(N[C@@H]4COC[C@@H]4F)CC3)c(-c3ccn(C)n3)c(C)c2c1 [Compound 88]	++ (between 10- and 100-fold selectivity)
< 1 nM	100 to 1000 nM	CCc1cc(-c2ccnn2C)c2nc(N3CCC(N[C@H]4CCOC[C@@H]4F)CC3)c(-c3ccn(C)n3)c(C)c2c1 [Compound 9, 1-(6-ethyl-4-methyl-3-(1-methyl-1H-pyrazol-3-yl)-8-(1-methyl-1H-pyrazol-5-yl)quinolin-2-yl)-N-((3R,4S)-3-fluorotetrahydro-2H-pyran-4-yl)piperidin-4-amine]	+++ (between 100- to 1000-fold selective)
> 1000 nM	> 1000 nM	CCc1cc(-c2ccnn2C)c2nc(N3CCC(N4CCOC[C@H]4C)CC3)c(-c3ccn(C)n3)c(C)c2c1 [Compound 93]	
10 to 100 nM	1 to 10 nM	CCc1cc(F)c2nc(N3CCN(/C(=N\C#N)NC4CCOCC4)C[C@H]3C)c(-c3ccn(C)n3)c(C)c2c1 [Compound 11, (R,E)-N′-cyano-4-(6-ethyl-8-fluoro-4-methyl-3-(1-methyl-1H-pyrazol-3-yl)quinolin-2-yl)-3-methyl-N-(tetrahydro-2H-pyran-4-yl)piperazine-1-carboximidamide]	++ (between 10- and 100-fold selectivity)
1 to 10 nM	> 1000 nM	CCc1cc(F)c2nc(N3CCC(N[C@H]4CCOC4)CC3)c(-c3cc(C)n(C)n3)c(C)c2c1 [Compound 18, (S)-1-(3-(1,5-dimethyl-1H-pyrazol-3-yl)-6-ethyl-8-fluoro-4-methylquinolin-2-yl)-N-(tetrahydrofuran-3-yl)piperidin-4-amine]	+++ (between 100- to 1000-fold selective)
1 to 10 nM	100 to 1000 nM	CCc1cc(F)c2nc(N3CCN(C(=O)CN4CCCC4)C[C@H]3C)c(-c3ccn(C)n3)c(C)c2c1 [Compound 173]	+++ (between 100- to 1000-fold selective)
